Read-outs that look alike come from different tables or passages of the source.
Tests used:
Assay type in all cases: cell-based
[1] = system: T47D cells expressing mutant PI3Ka (H1047R); assay: In vitro cell proliferation, T47D cells (CellTiter-Glo); conditions: inhibition of proliferation, read-out: Avg T-47D EC50
In short: (§1)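 T47D cells in RPMI/10% FBS/insulin (0.2 units/mL) or SKBR3 in McCoys 5a/10% FBS, 1,500 cells/well, grown 72 h at 37 °C with 10-point compound dilutions. CellTiter-Glo luminescence; % inhibition normalised to 0.1% DMSO and 10 uM Alpelisib, EC50 from four-parameter curve fit.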

[2] = system: SKBR3 cells express WT PI3Ka; assay: In vitro cell proliferation, SKBR3 cells (CellTiter-Glo); conditions: inhibition of proliferation
In short: as §1

[3] = system: phosphorylation of AKT (pAKT) in T47D cells expressing mutant PI3Ka (H1047R); assay: In vitro cell pAKT (Ser473) HTRF, T47D cells; conditions: cellular pAKT, T47D cells, mutant PI3Ka (H1047R), 6 hours, read-out: Avg T-47D IC50
In short: (§2)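 pAKT (Ser473) was quantified by HTRF in lysates from cells exposed 6 h at 37 °C to 10-point compound series, with T47D in insulin-supplemented RPMI/10% FBS and SKBR3 in McCoy's 5a/10% FBS. Controls: 0.1% DMSO (high) and 10 uM alpelisib (low). IC50 from sigmoidal curve fitting.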

[4] = system: phosphorylation of AKT (pAKT) in SKBR3 cells express WT PI3Ka; assay: In vitro cell pAKT (Ser473) HTRF, SKBR3 cells; conditions: cellular pAKT
In short: as §2

Row | Structure (SMILES) | EC50 ([1]; Homo sapiens, T47D, 72 h) | EC50 ([2]; Homo sapiens, SK-BR-3, 72 h) | IC50 ([3]; Homo sapiens, T47D, 6 h) | IC50 ([4]; Homo sapiens, SK-BR-3, 6 h) | EC50 ([1]; 72 hours) | EC50 ([2]; 72 hours) | IC50 [3] | IC50 ([4]; 6 hours)
1 | CCON1CCN(c2cc3c([C@@H](C)Nc4cccc(F)c4C(=O)O)cc(C)cc3c(=O)n2C)CC1 [Example 350] | 0.001 to 0.5 µM | > 15 µM | 0.001 to 0.5 µM | > 15 µM | – | – | – | –
2 | Cc1cc([C@@H](C)Nc2ccccc2C(=O)O)c2cc(N3CCN(c4nccs4)CC3)n(C)c(=O)c2c1 [Example 340] | 0.001 to 0.5 µM | > 15 µM | 0.001 to 0.5 µM | 2 to 15 µM | – | – | – | –
3 | Cc1cc(C(C)Nc2ccccc2C(=O)O)c2cc(N3CCC(c4ccccc4)C3)n(C)c(=O)c2c1 (single isomer, unassigned) [Example 105] | – | – | – | – | 0.5 to 2 µM | > 15 µM | 0.001 to 0.5 µM | > 15 µM
4 | Cc1ncncc1N1CCN(c2cc3c([C@@H](C)Nc4ccccc4C(=O)O)cc(F)cc3c(=O)n2C)CC1 [Example 465] | 0.001 to 0.5 µM | 2 to 15 µM | 0.001 to 0.5 µM | 2 to 15 µM | – | – | – | –
5 | C[C@@H](Nc1ccccc1C(=O)O)c1cc(F)cc2c(=O)n(C)c(-c3cnc(CF)s3)cc12 [Example 545] | 0.001 to 0.5 µM | > 15 µM | 0.001 to 0.5 µM | > 15 µM | – | – | – | –
6 | Cc1cc(C(C)Nc2ccccc2C(=O)O)c2cc(N3Cc4cc(F)cc(F)c4C3)n(C)c(=O)c2c1 (single isomer, unassigned) [Example 103] | – | – | – | – | 0.001 to 0.5 µM | > 15 µM | 0.001 to 0.5 µM | > 15 µM
7 | Cc1cc([C@@H](C)Nc2ccc(F)nc2C(=O)O)c2cc(-c3cnc(C(F)(F)F)nc3)n(C)c(=O)c2c1 [Example 387] | – | – | – | – | 0.001 to 0.5 µM | > 15 µM | 0.5 to 2 µM | > 15 µM
8 | C[C@@H](Nc1ccccc1C(=O)O)c1cc(F)cc2c(=O)n(C)c(C3C[C@@H]3C(F)(F)F)cc12 (single isomer, unassigned) [Example 451] | 0.001 to 0.5 µM | > 15 µM | 0.001 to 0.5 µM | > 15 µM | – | – | – | –
9 | Cc1ncc(N2CCN(c3cc4c([C@@H](C)Nc5ccccc5C(=O)O)cc(F)cc4c(=O)n3C)CC2)c(C)n1 [Example 495] | 0.001 to 0.5 µM | 2 to 15 µM | 0.001 to 0.5 µM | 0.5 to 2 µM | – | – | – | –
10 | Cc1cc(C(C)Nc2ccccc2C(=O)O)c2cc(N3CC4CCC(C4)C3)n(C)c(=O)c2c1 (centres unmarked) [Example 85] | 0.001 to 0.5 µM | > 15 µM | 0.001 to 0.5 µM | 2 to 15 µM | – | – | – | –
11 | C[C@@H](Nc1ccccc1C(=O)O)c1cc(F)cc2c(=O)n(C)c(-c3cnc(-c4cc(=O)n(C)cc4F)c(F)c3)cc12 [Example 42, (R)-2-((1-(3-(3,5′-difluoro-1′-methyl-2′-oxo-1′,2′-dihydro-[2,4′-bipyridin]-5-yl)-7-fluoro-2-methyl-1-oxo-1,2-dihydroisoquinolin-5-yl)ethyl)amino)benzoic acid] | 0.5 to 2 µM | > 15 µM | 0.5 to 2 µM | > 15 µM | – | – | – | –
12 | CCOc1ncc(-c2cc3c([C@@H](C)Nc4ccccc4C(=O)O)cc(F)cc3c(=O)n2C)s1 [Example 349] | 0.001 to 0.5 µM | > 15 µM | 0.001 to 0.5 µM | > 15 µM | – | – | – | –
13 | COc1ccc(-c2cc3c(C(C)Nc4ccccc4C(=O)O)cc(C)cc3c(=O)n2C)cn1 (single isomer, unassigned) [Example 155] | – | > 15 µM | – | > 15 µM | 0.001 to 0.5 µM | – | 0.001 to 0.5 µM | –
14 | C[C@@H](Nc1ccccc1C(=O)O)c1cc(F)cc2c(=O)n(C)c(N3CCN(CC(F)(F)F)C(C)(C)C3)cc12 [Example 510] | 0.001 to 0.5 µM | > 15 µM | 0.001 to 0.5 µM | > 15 µM | – | – | – | –
15 | COC[C@@H]1CC1c1cc2c([C@@H](C)Nc3ccccc3C(=O)O)cc(C)cc2c(=O)n1C (single isomer, unassigned) [Example 314] | – | – | – | – | 0.001 to 0.5 µM | > 15 µM | 0.001 to 0.5 µM | > 15 µM
16 | C[C@@H](Nc1ccccc1C(=O)O)c1cc(F)cc2c(=O)n(C)c(-c3cnc(Oc4cnn(C(F)F)c4)c(F)c3)cc12 [Example 48, (R)-2-((1-(3-(6-((1-(difluoromethyl)-1H-pyrazol-4-yl)oxy)-5-fluoropyridin-3-yl)-7-fluoro-2-methyl-1-oxo-1,2-dihydroisoquinolin-5-yl)ethyl)amino)benzoic acid] | 0.5 to 2 µM | > 15 µM | 0.001 to 0.5 µM | > 15 µM | – | – | – | –
17 | Cc1cc(C(C)Nc2ccccc2C(=O)O)c2cc(N3CCN(C)CC3)n(C)c(=O)c2c1 (single isomer, unassigned) [Example 12, 2-((1-(2,7-dimethyl-3-(4-methylpiperazin-1-yl)-1-oxo-1,2-dihydroisoquinolin-5-yl)ethyl)amino)benzoic acid] | – | > 15 µM | – | > 15 µM | > 15 µM | – | > 15 µM | –

Reference: US20260078103A1, “ISOQUINOLONES AS PI3K INHIBITORS” (OnKure, Inc., priority 2022, published 2026)
